Assay [1] concerns the target T1, aldosterone synthase (Homo sapiens, UniProt P19099).
T1 construct: host or cells: NCI-H295R
T1 sequence (P19099 25-503): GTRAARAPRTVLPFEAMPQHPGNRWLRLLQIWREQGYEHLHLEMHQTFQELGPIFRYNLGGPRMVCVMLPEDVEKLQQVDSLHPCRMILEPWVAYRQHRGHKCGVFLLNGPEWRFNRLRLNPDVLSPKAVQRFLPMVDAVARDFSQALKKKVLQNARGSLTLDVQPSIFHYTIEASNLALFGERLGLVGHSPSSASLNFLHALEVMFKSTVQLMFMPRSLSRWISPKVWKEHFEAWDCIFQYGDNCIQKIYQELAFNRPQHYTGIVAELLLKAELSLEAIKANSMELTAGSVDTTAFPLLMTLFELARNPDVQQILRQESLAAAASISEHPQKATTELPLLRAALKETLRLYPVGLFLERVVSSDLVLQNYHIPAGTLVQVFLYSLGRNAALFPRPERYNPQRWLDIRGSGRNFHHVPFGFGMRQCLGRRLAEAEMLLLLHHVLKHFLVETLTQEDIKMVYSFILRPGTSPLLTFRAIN
Kind of assay: Aldosterone cell secretion in NCI-H295R cells (Ang II stimulated, SPA). The assay is classed as cell-based. An excerpt:
In particular, the aldosterone synthase inhibitory activities in vitro can be determined by the following assay.
Human adrenocortical carcinoma NCI-H295R cell line was obtained from American Type Culture Collection (Manassas, Va.). Insulin/transferrin/selenium (ITS)-A supplement (100×), DMEM/F-12, antibiotic/antimycotic (100×), and fetal bovine serum (FBS) were purchased from Invitrogen (Carlsbad, Calif.). Anti-mouse PVT scintillation proximity assay (SPA) beads and NBS 96-well plates were obtained from GE Health Sciences (Piscataway, N.J.) and Corning (Acton, Mass.), respectively. Solid black 96-well flat bottom plates were purchased from Costar (Corning, N.Y.). Aldosterone and angiotensin (Ang II) were purchased from Sigma (St. Louis, Mo.). D[1,2,6,7-^3H(N)]aldosterone was acquired from PerkinElmer (Boston, Mass.). Nu-serum was a product of BD Biosciences (Franklin Lakes, N.J.).
For in vitro measurement of aldosterone activity, human adrenocortical carcinoma NCI-H295R cells are seeded in NBS 96-well plates at a density of 25,000 cells/well in 100 μl of a growth medium containing DMEM/F12 supplemented with 10% FCS, 2.5% Nu-serum, 1 μg ITS/ml, and 1× antibiotic/antimycotic. The medium is changed after culturing for 3 days at 37° C. under an atmosphere of 5% CO2/95% air. On the following day, cells are rinsed with 100 μl of phosphate-buffered saline (PBS) and incubated with 100 μl of treatment medium containing 1 μM Ang II and a compound at different concentrations in quadruplicate wells at 37° C. for 24 hr. At the end of incubation, 50 μl of medium is withdrawn from each well for measurement of aldosterone production by an SPA using mouse anti-aldosterone monoclonal antibodies.
Measurement of aldosterone activity can also be performed using a 96-well plate format. Each test sample is incubated with 0.02 μCi of D-[1,2,6,7-^3H(N)]aldosterone and 0.3 μg of anti-aldosterone antibody in PBS containing 0.1% Triton X-100, 0.1% bovine serum albumin, and 12% glycerol in a total volume of 200 μl at room temperature for 1 hr. Anti-mouse PVT SPA beads (50 μl) are then added to each well and incubated overnight at room temperature prior to counting in a Microbeta plate counter. The amount of aldosterone in each sample is calculated by comparing with a standard curve generated using known quantities of the hormone.
(§1) Inhibition of the release of certain steroids can be used as a measure of the respective enzyme inhibition by the added test compounds. The dose-dependent inhibition of enzymic activity by a compound is calculated by means of an inhibition plot which is characterized by an IC50.
The IC50 values for active test compounds are ascertained by a simple linear regression analysis in order to construct inhibition plots without data weighting. The inhibition plot is calculated by fitting a 4-parameter logistic function to the raw data points using the least squares method. The equation of the 4-parameter logistic function is calculated as follows: Y=(d−a)/((1+(x/c)b))+a, where: a=minimum data level, b gradient, I c=ICED, d=maximum data level, x=inhibitor concentration.
The inhibition activity of aldosterone production can also be expressed in percentage inhibition (% inhibition) at a given concentration (e.g. % inhibition at 1 μM), which is the aldosterone level when the cell is treated with the given concentration of a compound of this invention (e.g. concentration of 1 μM) versus the aldosterone excretion when cell is free of the compound of the invention: % inhibition aldosterone production=[(Y′−X′)/Y′]×100 wherein X′ is the level of aldosterone when the cell is treated with a compound of Formula I and Y′ is the level of aldosterone when the cell is free of compound of Formula I.

Assay [2] deals with T2, CYP11B1 (Homo sapiens, UniProt P15538).
T2 construct: the NCI-H295R cells have Cyp11 B1 (steroid 11 β-hydroxylase); host or cells: NCI-H295R
T2 sequence (P15538 25-503): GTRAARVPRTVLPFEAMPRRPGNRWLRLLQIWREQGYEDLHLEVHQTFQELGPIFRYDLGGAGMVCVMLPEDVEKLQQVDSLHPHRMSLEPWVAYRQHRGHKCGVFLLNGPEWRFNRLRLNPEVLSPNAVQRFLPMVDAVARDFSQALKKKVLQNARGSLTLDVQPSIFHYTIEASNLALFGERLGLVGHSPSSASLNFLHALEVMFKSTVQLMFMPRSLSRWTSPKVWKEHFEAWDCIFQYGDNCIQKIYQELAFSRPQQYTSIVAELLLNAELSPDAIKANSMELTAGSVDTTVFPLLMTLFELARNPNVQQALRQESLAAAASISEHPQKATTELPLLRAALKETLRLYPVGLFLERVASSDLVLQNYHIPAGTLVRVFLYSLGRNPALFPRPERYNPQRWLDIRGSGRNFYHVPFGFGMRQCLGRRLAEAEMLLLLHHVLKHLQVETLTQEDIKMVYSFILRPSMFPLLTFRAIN
The assay can be described thus: Cortisol cell secretion in NCI-H295R cells (CYP11B1 activity). The assay is classed as cell-based. As to conditions: for inhibition at 1 µM: read-out: Cortisol cell secretion (% Inhib. @ 1 μM).
Source text: The in vitro inhibitory activities for CYP11B1 can be determined by the following assay.
The cell line NCI-11295R was originally isolated from an adrenocortical carcinoma and has been characterized in the literature through the stimulable secretion of steroid hormones and the presence of the enzymes essential for steroidogenesis. Thus, the NCI-H295R cells have Cyp11 B1 (steroid 11 β-hydroxylase). The cells show the physiological property of zonally undifferentiated human foetal adrenocortical cells which, however, have the capacity to produce the steroid hormones which are formed in the three, phenotypically distinguishable zones in the adult adrenal cortex.
The NCI-H295R cells (American Type Culture Collection, ATCC, Rockville, Md., USA) are grown in Dulbeoco's Modified Eagle' Ham F-12 Medium (DME/F12), which has been supplemented with Ulroser SF Serum (Soprachem, Cergy-Saint-Christophe, France), insulin, transferrin, selenite (I-T-S, Becton Dickinson Biosciences, Franklin lakes, N.J., USA) and antibiotics in 75 cm^2 cell culture vessels at 37° C. and in a 95% air-5% carbon dioxide atmosphere. The cells are subsequently transferred for colony formation into a 24-well incubation vessel. They are cultivated there in DME/F12 medium, which is now supplemented with 0.1% bovine serum instead of Ultroser SF for 24 hours. The experiment is initiated by cultivating the cells in DME/F12 medium which is supplemented with 0.1% bovine serum albumin and test compound, in the presence or absence of cell stimulants, for 72 hours. The test substance is added in a concentration range from 0.2 nanomolar to 20 millimolar. Cell stimulants which can be used are angiotensin II ([…] or 100 nanomolar), potassium ions (16 millimolar), forskolin (10 micromolar) or a combination of two stimulants.
The excretion of aldosterone, cortisol, corticosterone and estradiol/estrone into the culture medium can be detected and quantified by commercially available, specific monoclonal antibodies in radioimmunoassays in accordance with the manufacturer's instructions.
as §1
The inhibition activity of cortisol production (CYP11B1 activity) can also be expressed in percentage inhibition (% inhibition) at a given concentration (e.g. % inhibition at 1 μM), which is the cortisol level when cell is treated with the given concentration of a compound of the invention (e.g. concentration of 1 versus the cortisol excretion when cell is free of the compound of the invention: % inhibition cortisol production=[(Y′−X′)/Y′]×100 wherein X′ is the level of cortisol when the cell is treated with a compound of Formula I; and Y′ is the level of cortisol when the cell is free of compound of Formula

A word on the IC50: it is the concentration that inhibits the measured activity by half. As for “1-Isopropyl-3-[5-(1-methyl-2-oxo-2,3-dihydro-1H-indol-5-yl)-pyridin-3-ylmethyl]-urea [Example 15]”, in assay [1], 172 nM corresponded to half-maximal inhibition (IC50). Besides, the “Cortisol cell secretion (% Inhib. @ 1 μM)” value in assay [2] was 82%. In assay [1], “1-Methyl-5-(5-methyl-pyridin-3-yl)-1,3-dihydro-indol-2-one [Example 1]” showed an IC50 of 91.5 nM. The “Cortisol cell secretion (% Inhib. @ 1 μM)” value in assay [2] was 29.5%.

“5-(4-Ethyl-pyridin-3-yl)-1-methyl-1,3-dihydro-indol-2-one [Example 6]” yielded an IC50 in assay [1] of 11 nM. The “Cortisol cell secretion (% Inhib. @ 1 μM)” value in assay [2] was 83%. The matching figures for “5-(5-Ethoxy-pyridin-3-yl)-1-methyl-1,3-dihydro-indol-2-one [#13]”: 18 nM and 51%.

In assay [1], “5-[5-(1-Hydroxy-1-methyl-ethyl)-pyridin-3-yl]-1-methyl-1,3-dihydro-indol-2-one [Example 16]” came in with an IC50 of 14 nM. The “Cortisol cell secretion (% Inhib. @ 1 μM)” value in assay [2] was determined as 87%. For `CN1C(=O)Cc2cc(-c3cncc(F)c3)ccc21` [Example 2, 5-(5-Fluoro-pyridin-3-yl)-1-methyl-1,3-dihydro-indol-2-one], in that order: 5 nM and 83%.

Consider `CN1C(=O)Cc2c1ccc(-c1cccnc1)c2Cl` [Example 4], for which, in assay [1], the concentration for half-maximal inhibition (IC50) worked out at 10 nM. Besides, the inhibition at 1 µM in assay [2] was 85.5%. In assay [1], `CN1C(=O)Cc2cc(-c3cncc(C(N)=O)c3)ccc21` [Example 5, 5-(1-Methyl-2-oxo-2,3-dihydro-1H-indol-5-yl)-nicotinamide] showed an IC50 of 58 nM. Moreover, in assay [2], the “Cortisol cell secretion (% Inhib. @ 1 μM)” value is 78%. In assay [1], `COc1c(-c2cccnc2)ccc2c1CC(=O)N2C` [Example 8] displayed an IC50 of 36 nM. For the same compound, the inhibition at 1 µM in assay [2] is 84%. In assay [1], `CC(C)C(=O)Nc1cncc(-c2ccc3c(c2)CC(=O)N3C)c1` [Example 9, N-[5-(1-Methyl-2-oxo-2,3-dihydro-1H-indol-5-yl)-pyridin-3-yl]-isobutyramide] had an IC50 of 15 nM. In addition, the “Cortisol cell secretion (% Inhib. @ 1 μM)” value in assay [2] is 89%.

In assay [1], `Cc1c(-c2cncc(Br)c2)ccc2c1CC(=O)N2C` [Example 10] yielded an IC50 of 4 nM. For the same compound, in assay [2], the inhibition at 1 µM was 93%. For `CN1C(=O)Cc2cc(-c3cncc(C4CC4)c3)ccc21` [Example 12], 2 nM corresponded to half-maximal inhibition in assay [1] (IC50). In addition, the inhibition at 1 µM in assay [2] amounted to 79%. On to `CCOc1cncc(-c2ccc3c(c2)CC(=O)N3C)c1` [Example 13], for which, in assay [1], the IC50 is 20 nM. For the same compound, the inhibition at 1 µM in assay [2] was found to be 83.5%. The compound `CN1C(=O)Cc2cc(-c3cncc(-c4cccnc4)c3)ccc21` [Example 14] yielded an IC50 in assay [1] of 18 nM. Besides, the inhibition at 1 µM in assay [2] worked out at 60%. In assay [1], `Cn1c(=O)n(C)c2cc(-c3cccnc3)ccc21` [Example 18] returned a half-inhibitory concentration (IC50) of 408 nM. Still for that read-out and setting: under `Cn1c(=O)oc2cc(-c3cccnc3)ccc21` [Example 19] stands 472 nM.

Values taken from patent publication US8778972B2, “5-pyridin-3-yl-1, 3-dihydro-indol-2-on derivatives and their use as modulators of aldosterone synthase and/or CYP11B1” (Novartis AG, priority 2009, dated 2014).
